Results on 8 molecules are retold here after patent publication US20250017856A1, “CO-FORMULATION AND CO-DELIVERY OF IONIZABLE COLLOID FORMING DRUGS WITH NUCLEIC ACIDS” (THE GOVERNING COUNCIL OF THE UNIVERSITY OF TORONTO, priority 2023, published 2025).

Bounds are passed on as bounds.

One data set relates to T47D-R cells. The data set can be described thus: Confirmation of palbociclib resistance. In kind it is cell-based. To be noted: Homo sapiens; palbociclib-resistant T47D cells (T47D-R). The procedure: SKOV3 cells were obtained from ATCC. SKOV3-luc cells were obtained from Cell Biolabs. Vero-E6-nLucP cells were a generous gift from Roman Melnyk. T47D cells were a gift from B. Neel (University Health Network). Palbociclib-resistant T47D cells (T47D-R) were developed by dose escalation of palbociclib up to 500-1000 nM over 6-12 months and was confirmed by a palbociclib IC50 greater than […]. Parental T47D cells (T47D-P) were cultured over the same time frame without palbociclib treatment. Cells were maintained in a humified incubator at 37° C. with 5% atmospheric CO2. RPMI 1640 (SKOV3, T47D) or EMEM (Vero-E6) were used as a base media. Cells were grown in 75 cm^2 tissue culture flasks with 10 mL of media supplemented with 10% FBS, 10 UI/mL penicillin and 10 μg/mL streptomycin. The cells were passaged once per week following detachment with trypsin-EDTA, replacement of the supernatant with fresh media, and subculture into a new flask with fresh media. Subculture ratios between 1:4 and 1:50 were used.

The conditions of data set [1]: ionizable compound (fulvestrant analog); cited from earlier work.
A short description of data set [2]: Hydrodynamic diameter and polydispersity index by dynamic light scattering. In kind it is physicochemical. The conditions noted are these: FxNP. From the text: (§1) [NT] antisense (SEQ ID NO: 2): [NT] where “d” denotes a DNA base), siFLuc-2 (sense (SEQ ID NO: 3): [NT] antisense (SEQ ID NO: 4): [NT] where “d” denotes a DNA base and “m” indicates a 2'-O-methyl RNA base), sinLuc (sense (SEQ ID NO: 5): [NT] antisense SEQ ID NO: 6): [NT] where “d” denotes a DNA base), […]1 (sense (SEQ ID NO: 7): [NT] antisense (SEQ ID NO: 8): [NT] where “d” denotes a DNA base and “m” indicates a 2'-O-methyl RNA base), siNT (sense (SEQ ID NO: 9): [NT] antisense (SEQ ID NO: 10): [NT] where “d” denotes a DNA base and “m” indicates a 2'-O-methyl RNA base), mFLuc (EZ Cap Firefly Luciferase mRNA (5-moUTP), ApexBio), rRNA or RNA from Torula utilis yeast (T.U. RNA) was diluted in citrate buffer (50 or 25 mM, pH 4), malate buffer (25 mM, pH 4.0) or acetate buffer (25 mM, pH 4.0). A lipid/drug mix concentration of 5.5 mM was used with a total flow rate of 9 mL/min at a 3:1 ratio of aqueous to organic phase. […] After formulation, buffer exchange into PBS or Tris-buffered saline (TBS; pH 8.5) was performed using Amicon Ultra-4 centrifugal filters (molecular weight cut-off 10 kDa). Hydrodynamic diameter, polydispersity index (PDI), and scattering intensity were measured by dynamic light scattering (DLS) using a DynaPro Plate Reader II (Wyatt Technologies). The instrument was configured with a 60 mW 830 nm laser and a detector angle of 158°. A 25 μL sample of each formulation was pipetted into each well of a 384-well plate and measured with 20 acquisitions per sample at 25° C. […] Quant-iT RiboGreen reagent was added, and fluorescence intensity was quantified using a Tecan Infinite […] plate reader.

Data set [3] is described as follows: RNA encapsulation efficiency (modified Quant-iT RiboGreen assay) and loading. In kind it is physicochemical. The conditions noted are these: for Encapsulation efficiency (%) / Small molecule drug mass % / siRNA mass %: FxNP.
Source text: as §1

The nature of data set [4]: Zeta potential (Malvern Zetasizer). In kind it is physicochemical. The conditions noted are these: FxNP. The protocol:
Zeta potential was measured by diluting FXNPs in phosphate to an ion concentration of 1 mM and using a Malvern Zetasizer Nano ZS instrument.

The next data set concerns FLuc in SKOV3-FLuc cells. Put plainly: Model gene knockdown, firefly luciferase. In kind it is cell-based. The protocol:
For single-dose studies, 5×10^3 SKOV3-FLuc or 2×10^3 Vero-nLucP cells in 100 μL were plated in each well of a white-wall 96-well plate (Costar 3610) and allowed to adhere overnight. FXNP suspensions were diluted in PBS and 10 μL of each tested formulation was dosed in triplicate, followed by 100 μL of complete cell growth media to promote mixing. The final encapsulated siRNA concentration in each well was 50.0 nM. For dose-response studies, 1.25×10^3 SKOV3-FLuc cells in 25 μL were plated in each well of a white-wall 384-well plate (Greiner Bio-one 781073) and allowed to adhere overnight. Nanoparticle suspensions were diluted in PBS and 5 μL of each tested formulation was dosed in triplicate, followed by 20 μL of complete cell growth media to promote mixing. The final encapsulated siRNA concentration in each well is specified in each figure. For all studies, the plate was incubated for 24 h followed by removal of the media. For SKOV3-FLuc cells, fresh media was added, and the plate was incubated for an additional 24 h before removal of the media. Total cellular metabolic activity was quantified by addition of PrestoBlue™ according to the manufacturer's instructions, after which the reagent was subsequently removed, and expression of either firefly luciferase (SKOV3-FLuc) or nano luciferase (Vero-nLucP) was determined by Steady-Glo® Luciferase Assay System or Nano-Glo® Luciferase Assay System, respectively. Luminescence was measured using a Tecan Infinite Pro 200 plate reader. Cell metabolic activity and reporter gene expression are represented relative to cells treated with an equivalent volume of PBS. Reporter gene expression is normalized to cell metabolic activity. For dose-response studies, IC50 values were determined by non-linear regression analysis using eq. 3

For data set [5], the system named is firefly luciferase expression in mouse liver. The data set can be described thus: In vivo liver bioluminescence after i.v. injection of mFLuc nanoparticles. On the set-up: species or system BALB/c mice. To be noted: tail vein, 1 mg/kg mRNA, 4 and 24 h. The protocol: Animal study protocols were approved by the Animal Care Committee at the University of Toronto and experiments were performed in accordance with the Guide to Care and Use of Experimental Animals (Canadian Council on Animal Care). FXNPs with encapsulated mFLuc and DIR (0.5 mol %) were administered (1 mg/kg in terms of mRNA) via tail vein injection to BALB/c mice. After 4 h and 24 h, mice were anesthetized using isoflurane and injected intraperitoneally with 150 mg/kg VivoGlo™ luciferin (Promega, Madison, WI). Whole-body luminescence was acquired by a PerkinElmer In-Vivo Imaging System Spectrum instrument after 10-20 minutes.

In general, IC50 refers to the midpoint of a concentration-inhibition curve. A higher IC50 goes with a need for much substance. In the case of `CC(=O)c1c(C)c2cnc(Nc3ccc(N4CCNCC4)cn3)nc2n(C2CCCC2)c1=O` [palbociclib], the IC50 in the data set with T47D-R cells is more than 1000 nM.
The pKa is the pH at which an ionisable group is half protonated. `CC12CCC3c4ccc(O)cc4CC(CCCCCCCCCS(=O)(CCCC(F)(F)C(F)(F)F)=NC(=O)CN4CCCC4)C3C1CCC2O` (centres unmarked) [7h]: the pKa in data set [1] was 7.3. For the same molecule, in data set [2] (siFLuc, DSPC), the “Hydrodynamic diameter (nm)” value was found to be 160.5 nm and the PDI is listed as 0.183. In data set [3] (siFLuc, DSPC), the “Encapsulation efficiency (%)” value amounted to 86.4%, the “Small molecule drug mass %” value came out at 55.3% and the siRNA mass % stood at 4.4%. Also, the “Zeta potential (mV)” value in data set [4] (siFLuc, DSPC) is reported as −7.54 mV.
On to `CCCCCCCCCCCOC(=O)CCCCCN(CCO)CCCCCCCC(=O)OC(CCCCCCCC)CCCCCCCC` [SM-102], for which, in the data set with FLuc in SKOV3-FLuc cells (netarsudil:SM-102 0:10), the “effect of removing netarsudil without replacement” value was “decrease in potency and loss of encapsulated siRNA”. For the same molecule, the “change of IC50 on replacing all of the netarsudil with SM-102” value in the data set with FLuc in SKOV3-FLuc cells (netarsudil:SM-102 0:50) is recorded as “non-significant decrease in IC50”.
Regarding `CC12CCC3c4ccc(O)cc4CC(CCCCCCCCCS(=O)(CCCC(F)(F)C(F)(F)F)=NC(=O)CCN4CCOCC4)C3C1CCC2O` (centres unmarked) [7d], the pKa in data set [1] is 5.7. Also, the “Hydrodynamic diameter (nm)” value in data set [2] (siFLuc, DOPC) stood at 199.0 nm; in data set [2] (siFLuc, DSPC) it was 154.9 nm; in data set [2] (sinLuc, DOPC) it was 224.8 nm. For the same molecule, the PDI is 0.066 in data set [2] (siFLuc, DOPC); 0.036 in data set [2] (siFLuc, DSPC); 0.093 in data set [2] (sinLuc, DOPC). In addition, the “Encapsulation efficiency (%)” value in data set [3] (siFLuc, DOPC) came out at 80.3%; in data set [3] (siFLuc, DSPC), 88.3%; in data set [3] (sinLuc, DOPC) it was 76.4%. The “Small molecule drug mass %” value in data set [3] (siFLuc, DOPC) is given as 56.5%; in data set [3] (siFLuc, DSPC), 56.3%; in data set [3] (sinLuc, DOPC) it was 56.6%. Further, the siRNA mass % in data set [3] (siFLuc, DOPC) is recorded as 4.0%; in data set [3] (siFLuc, DSPC), 4.4%; in data set [3] (sinLuc, DOPC) it was 3.8%. Moreover, the “Zeta potential (mV)” value in data set [4] (siFLuc, DOPC) is −8.00 mV; in data set [4] (siFLuc, DSPC), −11.83 mV; in data set [4] (sinLuc, DOPC), −14.27 mV.
As for `C[C@]12CC[C@@H]3c4ccc(O)cc4C[C@@H](CCCCCCCCC[S+]([O-])CCCC(F)(F)C(F)(F)F)[C@H]3[C@@H]1CC[C@@H]2O` (some centres unmarked) [FV, fulvestrant, reference compound], in data set [2] (siFLuc, DSPC), the “Hydrodynamic diameter (nm)” value is 204.7 nm and the PDI came out at 0.102. Moreover, in data set [3] (DSPC formulations), the “encapsulation and loading efficiencies of siRNA (in words)” value is on record as “low”. Besides, in data set [3] (siFLuc, DSPC), the “Encapsulation efficiency (%)” value stood at 14.5%, the “Small molecule drug mass %” value is 52.8% and the siRNA mass % is recorded as 0.9%. Moreover, in data set [4] (siFLuc, DSPC), the “Zeta potential (mV)” value was −19.23 mV. In data set [5], the liver bioluminescence result is on record as “did not show bioluminescence above the baseline”.
In the case of `CN(C)CCC(=O)N=S(=O)(CCCCCCCCCC1Cc2cc(O)ccc2C2CCC3(C)C(O)CCC3C12)CCCC(F)(F)C(F)(F)F` (centres unmarked) [7k], the pKa in data set [1] was 7.8. Besides, in data set [2] (siFLuc, DSPC), the “Hydrodynamic diameter (nm)” value came to 426.9 nm and the PDI is given as 0.060. For the same molecule, in data set [3] (siFLuc, DSPC), the “Encapsulation efficiency (%)” value is recorded as 80.2%, the “Small molecule drug mass %” value stood at 55.1% and the siRNA mass % is on record as 4.2%. Besides, the “Zeta potential (mV)” value in data set [4] (siFLuc, DSPC) is listed as −8.53 mV.
In the case of `CC12CCC3c4ccc(O)cc4CC(CCCCCCCCCS(=O)(CCCC(F)(F)C(F)(F)F)=NC(=O)CCN4CCCCC4)C3C1CCC2O` (centres unmarked) [7g], the pKa in data set [1] was 7.3. Also, the “Hydrodynamic diameter (nm)” value in data set [2] (siFLuc, DOPC) was determined as 186.2 nm; in data set [2] (siFLuc, DSPC) it was 170.8 nm; in data set [2] (sinLuc, DOPC), 181.8 nm. In addition, the PDI in data set [2] (siFLuc, DOPC) came to 0.022; in data set [2] (siFLuc, DSPC), 0.076; in data set [2] (sinLuc, DOPC), 0.042. Further, the “Encapsulation efficiency (%)” value in data set [3] (siFLuc, DOPC) was found to be 96.6%; in data set [3] (siFLuc, DSPC) it was 94.7%; in data set [3] (sinLuc, DOPC), 94.9%. The “Small molecule drug mass %” value in data set [3] (siFLuc, DOPC) worked out at 56.0%; in data set [3] (siFLuc, DSPC) it was 56.0%; in data set [3] (sinLuc, DOPC), 56.0%. Further, the siRNA mass % in data set [3] (siFLuc, DOPC) is listed as 4.8%; in data set [3] (siFLuc, DSPC), 4.7%; in data set [3] (sinLuc, DOPC) it was 4.7%. Further, the “Zeta potential (mV)” value is listed as 3.39 mV in data set [4] (siFLuc, DOPC); −4.92 mV in data set [4] (siFLuc, DSPC); 0.01 mV in data set [4] (sinLuc, DOPC).
For `Cc1ccc(C(=O)OCc2ccc([C@@H](CN)C(=O)Nc3ccc4cnccc4c3)cc2)c(C)c1` [netarsudil], the IC50 with FLuc in SKOV3-FLuc cells (50:0 netarsudil:SM-102, narrowed concentration range (<2 nM)) was more than 2 nM; with FLuc in SKOV3-FLuc cells (TBS, 40 mol % netarsudil with 10 mol % ALC-0315), 0.32 nM; in the data set with FLuc in SKOV3-FLuc cells (TBS, 40 mol % netarsudil with 10 mol % MC3) it was 0.77 nM; in the data set with FLuc in SKOV3-FLuc cells (TBS, 40 mol % netarsudil with 10 mol % SM-102) it was 0.16 nM; with FLuc in SKOV3-FLuc cells (neutralized in TBS, 50 mol % netarsudil, no ionizable lipid), 3.8 nM.
